Measured values from ChEMBL document CHEMBL4715888, “Synthetic approaches to unsymmetrical 2,5-disubstituted 1,3,4-oxadiazoles and their MAO-B inhibitory activity. A review” (Bioorg Med Chem, 2021).

Columns and labels:
[1] = target: T1, Amine oxidase [flavin-containing] A (Rattus norvegicus, UniProt P21396); assay: Inhibition of Sprague-Dawley rat brain mitochondrial MAO-A using [14C]-5-HT as substrate by radioassay method
T1 sequence (P21396 whole entry): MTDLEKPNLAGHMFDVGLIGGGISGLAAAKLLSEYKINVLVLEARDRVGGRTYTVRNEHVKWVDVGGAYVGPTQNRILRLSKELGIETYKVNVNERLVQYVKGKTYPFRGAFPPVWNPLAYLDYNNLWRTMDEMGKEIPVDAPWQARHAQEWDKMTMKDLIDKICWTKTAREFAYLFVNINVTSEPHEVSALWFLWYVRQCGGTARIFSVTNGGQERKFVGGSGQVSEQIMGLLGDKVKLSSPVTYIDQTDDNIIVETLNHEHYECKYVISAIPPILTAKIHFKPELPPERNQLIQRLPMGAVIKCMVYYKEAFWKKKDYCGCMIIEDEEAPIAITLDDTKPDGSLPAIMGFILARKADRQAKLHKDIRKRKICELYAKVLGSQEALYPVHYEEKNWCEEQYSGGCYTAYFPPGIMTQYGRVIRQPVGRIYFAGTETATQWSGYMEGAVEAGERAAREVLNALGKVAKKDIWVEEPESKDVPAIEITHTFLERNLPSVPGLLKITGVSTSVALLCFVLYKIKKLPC

[2] = target: T2, Amine oxidase [flavin-containing] B (Rattus norvegicus, UniProt P19643); assay: Inhibition of Sprague-Dawley rat brain mitochondrial MAO-B using [14C]-PEA as substrate by radioassay method
T2 sequence (P19643 whole entry): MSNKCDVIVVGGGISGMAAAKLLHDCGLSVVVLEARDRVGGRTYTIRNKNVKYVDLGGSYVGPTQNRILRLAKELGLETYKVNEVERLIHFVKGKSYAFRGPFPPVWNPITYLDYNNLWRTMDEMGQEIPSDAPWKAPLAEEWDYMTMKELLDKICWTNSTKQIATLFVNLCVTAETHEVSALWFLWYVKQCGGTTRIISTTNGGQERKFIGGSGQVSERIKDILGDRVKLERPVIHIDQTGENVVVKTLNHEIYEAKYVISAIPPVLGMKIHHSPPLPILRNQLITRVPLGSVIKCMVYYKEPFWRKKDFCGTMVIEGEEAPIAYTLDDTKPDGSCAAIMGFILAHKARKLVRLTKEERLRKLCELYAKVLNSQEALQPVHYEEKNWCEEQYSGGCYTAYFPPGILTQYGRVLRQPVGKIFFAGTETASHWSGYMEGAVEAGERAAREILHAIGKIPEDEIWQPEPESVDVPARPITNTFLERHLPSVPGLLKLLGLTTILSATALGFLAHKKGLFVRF

Rattus norvegicus = species on record: Rattus norvegicus; assay: Selectivity ratio of IC50 for Sprague-Dawley rat brain mitochondrial MAO-A to IC50 for Sprague-Dawley rat brain mitochondrial MAO-B
[3] = target: T2, Amine oxidase [flavin-containing] B; assay: Inhibition of Sprague-Dawley rat brain mitochondrial MAO-B using [14C]-PEA as substrate preincubated for 60 mins by radiochemical method
[4] = target: T2, Amine oxidase [flavin-containing] B; assay: Inhibition of Sprague-Dawley rat brain mitochondrial MAO-B using [14C]-PEA as substrate preincubated for 120 mins by radiochemical method
[5] = target: T2, Amine oxidase [flavin-containing] B; assay: Competitive inhibition of Sprague-Dawley rat brain mitochondrial MAO-B using PEA as substrate by Lineweaver-Burk plot analysis
[6] = target: T2, Amine oxidase [flavin-containing] B; assay: Inhibition of Sprague-Dawley rat brain mitochondrial MAO-B using PEA as substrate preincubated for 60 mins; conditions: read-out: Kieq

| SMILES | IC50 [1] [nM] | IC50 [2] [nM] | Ratio IC50 (Rattus norvegicus) | IC50 [3] [nM] | IC50 [4] [nM] | Ki [5] [nM] | Ki [6] [nM] |
| --- | --- | --- | --- | --- | --- | --- | --- |
| N#CCCn1nc(-c2ccc(OCc3ccccc3)cc2)oc1=S | – | – | > 3200 | – | – | – | – |
| N#CCCn1nc(-c2ccc(-c3ccccc3)cc2)oc1=S | 22500 | 74 | 304 | – | – | – | – |
| N#CCCn1nc(-c2ccc(OCc3ccccc3)cc2)oc1=O | – | – | > 71400 | – | – | 220 | 0.7 |

Results, then the molecule that gave them:

| IC50 [1] [nM] | IC50 [2] [nM] | Ratio IC50 (Rattus norvegicus) | IC50 [3] [nM] | IC50 [4] [nM] | Ki [5] [nM] | Ki [6] [nM] | SMILES |
| --- | --- | --- | --- | --- | --- | --- | --- |
| 7800 | 56 | 139 | – | – | – | – | N#CCCn1nc(-c2ccc(-c3ccccc3)cc2)oc1=O |
| – | – | > 30400 | 4.7 | 4.7 | – | – | O=c1oc(-c2ccc(OCc3ccccc3)cc2)nn1CCO |
